biological target: T1, CCR2 (Homo sapiens, UniProt P41597); experiment: MCP-1 Receptor Binding Assay in THP-1 Cells; conditions: 0.5 nM 125I labeled MCP-1, 2 hours at 30° C., less polar isomer tested where stated, read-out: Inhibition of MCP-1 Binding IC50, CCR2 Binding
T1 construct: host or cells: THP-1 human monocytic cells
T1 sequence (P41597 1-360 isoform P41597-2): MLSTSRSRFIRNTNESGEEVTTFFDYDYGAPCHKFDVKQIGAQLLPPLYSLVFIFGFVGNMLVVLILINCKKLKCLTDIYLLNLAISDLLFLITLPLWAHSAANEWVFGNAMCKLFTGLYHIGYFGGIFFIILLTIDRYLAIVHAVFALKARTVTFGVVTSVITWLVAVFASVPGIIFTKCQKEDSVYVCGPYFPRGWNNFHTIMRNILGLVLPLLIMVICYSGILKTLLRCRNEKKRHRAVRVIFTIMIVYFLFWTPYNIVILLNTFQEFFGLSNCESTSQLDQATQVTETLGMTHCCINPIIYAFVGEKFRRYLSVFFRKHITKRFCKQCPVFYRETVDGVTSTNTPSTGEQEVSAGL
Experimental: MCP-1 Receptor Binding Assay in THP-1 Cells
Human monocytic cell line THP-1 cells were obtained from American Type Culture Collection (Manassas, Va., USA). The THP-1 cells were grown in RPMI-1640 (RPMI: Roswell Park Memorial Institute Medium-cell culture growth media) supplemented with 10% fetal bovine serum in a humidified 5% CO2 atmosphere at 37° C. The cell density was maintained […].
THP-1 (cells were incubated with 0.5 nM ^125I labeled MCP-1 (Perkin-Elmer Life Sciences, Inc. Boston, Mass.) in the presence of varying concentrations of either unlabeled MCP-1 (R & D Systems, Minneapolis, Minn.) or test compound for 2 hours at 30° C. in a 96 well plate. Cells were then harvested onto a filter plate, dried, and 20 μL of Microscint 20 was added to each well. Plates were counted in a TopCount NXT, Microplate Scintillation & Luminescence Counter (Perkin-Elmer Life Sciences, Inc. Boston, Mass.). Blank values (buffer only) were subtracted from all values and drug treated values were compared to vehicle treated values. 1 μM cold MCP-1 was used for nonspecific binding.
Where an IC50 value was not obtained for a particular compound, the percent inhibition is provided at a test concentration of 25 μM.

IC50	SMILES
1700 nM	Cn1nc(NCC(=O)NC2CN(C3CCC(O)(c4cncs4)CC3)C2)c2cc(C(O)C(F)(F)F)ccc21 (stereo not shown) [Example 61, N-[1-(4-Hydroxy-4-thiazol-5-yl-cyclohexyl)-azetidin-3-yl]-2-[1-methyl-5-(2,2,2-trifluoro-1-hydroxy-ethyl)-1H-indazol-3-ylamino]-acetamide]
1500 nM	CCc1ncc(C2(O)CCC(N3CC(NC(=O)CNc4nn(C)c5ccc(C(O)C(F)(F)F)cc45)C3)CC2)s1 (stereo not shown) [Example 62, N-{1-[4-(2-Ethyl-thiazol-5-yl)-4-hydroxy-cyclohexyl]-azetidin-3-yl}-2-[1-methyl-5-(2,2,2-trifluoro-1-hydroxy-ethyl)-1H-indazol-3-ylamino]-acetamide]
3400 nM	Cc1ccc(C2(O)CCC(N3CC(NC(=O)CNc4nn(C)c5ccc(C(O)C(F)(F)F)cc45)C3)CC2)cn1 (stereo not shown) [Example 63, N-{1-[4-Hydroxy-4-(6-methyl-pyridin-3-yl)-cyclohexyl]-azetidin-3-yl}-2-[1-methyl-5-(2,2,2-trifluoro-1-hydroxy-ethyl)-1H-indazol-3-ylamino]-acetamide]
300 nM	Cn1nc(NCC(=O)NC2CN(C3CCC(c4ccc5c(c4)OCO5)CC3)C2)c2cc(C(O)C(F)(F)F)ccc21 (stereo not shown) [Example 64, N-[1-(4-Benzo[1,3]dioxol-5-yl-cyclohexyl)-azetidin-3-yl]-2-[1-methyl-5-(2,2,2-trifluoro-1-hydroxy-ethyl)-1H-indazol-3-ylamino]-acetamide]
100 nM	Cn1nc(NCC(=O)NC2CN(C3CCC(O)(c4cncs4)CC3)C2)c2cc(C(F)C(F)(F)F)ccc21 (stereo not shown) [Example 65, N-[1-(4-Hydroxy-4-thiazol-5-yl-cyclohexyl)-azetidin-3-yl]-2-[1-methyl-5-(1,2,2,2-tetrafluoro-ethyl)-1H-indazol-3-ylamino]-acetamide]
37 nM	Cn1nc(NCC(=O)NC2CN(C3CCC(O)(c4nccs4)CC3)C2)c2cc(C(F)C(F)(F)F)ccc21 (stereo not shown) [Example 66, N-[1-(4-Hydroxy-4-thiazol-2-yl-cyclohexyl)-azetidin-3-yl]-2-[1-methyl-5-(1,2,2,2-tetrafluoro-ethyl)-1H-indazol-3-ylamino]-acetamide]
8.4 nM	CCn1nc(NCC(=O)NC2CN(C3CCC(O)(c4cncs4)CC3)C2)c2cc(C(F)(F)F)ccc21 (stereo not shown) [Example 67, 2-(1-Ethyl-5-trifluoromethyl-1H-indazol-3-ylamino)-N-[1-(4-hydroxy-4-thiazol-5-yl-cyclohexyl)-azetidin-3-yl]-acetamide]
51 nM	CCn1nc(NCC(=O)NC2CN(C3CCC(O)(c4nccs4)CC3)C2)c2cc(C(F)(F)F)ccc21 (stereo not shown) [Example 68, 2-(1-Ethyl-5-trifluoromethyl-1H-indazol-3-ylamino)-N-[1-(4-hydroxy-4-thiazol-2-yl-cyclohexyl)-azetidin-3-yl]-acetamide]
8.6 nM	CCn1nc(NCC(=O)NC2CN(C3CCC(O)(c4cnc(C)s4)CC3)C2)c2cc(C(F)(F)F)ccc21 (stereo not shown) [Example 69, 2-(1-Ethyl-5-trifluoromethyl-1H-indazol-3-ylamino)-N-{1-[4-hydroxy-4-(2-methyl-thiazol-5-yl)-cyclohexyl]-azetidin-3-yl}-acetamide]
730 nM	CCn1nc(NCC(=O)NC2CN(C3CCC(C(C)C)CC3)C2)c2cc(C(F)(F)F)ccc21 (stereo not shown) [Example 71, 2-(1-Ethyl-5-trifluoromethyl-1H-indazol-3-ylamino)-N-[1-(4-isopropyl-cyclohexyl)-azetidin-3-yl]-acetamide]
230 nM	CCOC(=O)C1CCC(N2CC(NC(=O)CNc3nn(CC(F)(F)F)c4ccc(C(F)(F)F)cc34)C2)CC1 (stereo not shown) [Example 72, 4-(3-{2-[1-(2,2,2-Trifluoro-ethyl)-5-trifluoromethyl-1H-indazol-3-ylamino]-acetylamino}-azetidin-1-yl)-cyclohexane carboxylic acid ethyl ester]
160 nM	CCc1ncc(C2(O)CCC(N3CC(NC(=O)CNc4nn(CC(F)(F)F)c5ccc(C(F)(F)F)cc45)C3)CC2)s1 (stereo not shown) [Example 73, N-{1-[4-(2-Ethyl-thiazol-5-yl)-4-hydroxy-cyclohexyl]-azetidin-3-yl}-2-[1-(2,2,2-trifluoro-ethyl)-5-trifluoromethyl-1H-indazol-3-ylamino]-acetamide]
55 nM	Cc1ccc(C2(O)CCC(N3CC(NC(=O)CNc4nn(CCO)c5ccc(C(F)(F)F)cc45)C3)CC2)cn1 (stereo not shown) [Example 74, 2-[1-(2-Hydroxy-ethyl)-5-trifluoromethyl-1H-indazol-3-ylamino]-N-{1-[4-hydroxy-4-(6-methyl-pyridin-3-yl)-cyclohexyl]-azetidin-3-yl}-acetamide]
32 nM	COc1ccc(C2(O)CCC(N3CC(NC(=O)CNc4nn(CCO)c5ccc(C(F)(F)F)cc45)C3)CC2)cn1 (stereo not shown) [Example 75, 2-[1-(2-Hydroxy-ethyl)-5-trifluoromethyl-1H-indazol-3-ylamino]-N-{1-[4-hydroxy-4-(6-methoxy-pyridin-3-yl)-cyclohexyl]-azetidin-3-yl}-acetamide]
29 nM	O=C(CNc1nn(CCO)c2ccc(C(F)(F)F)cc12)NC1CN(C2CCC(O)(c3cncs3)CC2)C1 (stereo not shown) [Example 76]
31 nM	Cc1cnc(C2(O)CCC(N3CC(NC(=O)CNc4nn(CCO)c5ccc(C(F)(F)F)cc45)C3)CC2)s1 (stereo not shown) [Example 77, 2-[1-(2-Hydroxy-ethyl)-5-trifluoromethyl-1H-indazol-3-ylamino]-N-{1-[4-hydroxy-4-(5-methyl-thiazol-2-yl)-cyclohexyl]-azetidin-3-yl}-acetamide]
75 nM	CC(C)(C)NC(=O)n1nc(NCC(=O)NC2CN(C3CCC(O)(c4nccs4)CC3)C2)c2cc(C(F)(F)F)ccc21 (stereo not shown) [Example 80, 3-({[1-(4-Hydroxy-4-thiazol-2-yl-cyclohexyl)-azetidin-3-ylcarbamoyl]-methyl}-amino)-5-trifluoromethyl-indazole-1-carboxylic acid tert-butylamide]
29 nM	NC(=O)n1nc(NCC(=O)NC2CN(C3CCC(O)(c4nccs4)CC3)C2)c2cc(C(F)(F)F)ccc21 (stereo not shown) [Example 81, 3-({[1-(4-Hydroxy-4-thiazol-2-yl-cyclohexyl)-azetidin-3-ylcarbamoyl]-methyl}-amino)-5-trifluoromethyl-indazole-1-carboxylic acid amide]
34 nM	CCOc1ccc(C2(O)CCC(N3CC(NC(=O)CNc4nn(C(=O)NC(C)(C)C)c5ccc(C(F)(F)F)cc45)C3)CC2)cn1 (stereo not shown) [Example 82, 3-[({1-[4-(6-Ethoxy-pyridin-3-yl)-4-hydroxy-cyclohexyl]-azetidin-3-ylcarbamoyl}-methyl)-amino]-5-trifluoromethyl-indazole-1-carboxylic acid tert-butylamide]
22 nM	CCOc1ccc(C2(O)CCC(N3CC(NC(=O)CNc4nn(C(N)=O)c5ccc(C(F)(F)F)cc45)C3)CC2)cn1 (stereo not shown) [Example 83, 3-[({1-[4-(6-Ethoxy-pyridin-3-yl)-4-hydroxy-cyclohexyl]-azetidin-3-ylcarbamoyl}-methyl)-amino]-5-trifluoromethyl-indazole-1-carboxylic acid amide]
870 nM	CC(C)(C)NC(=O)n1nc(NCC(=O)NC2CN(C3CCC(O[Si](C)(C)C(C)(C)C)CC3)C2)c2cc(C(F)(F)F)ccc21 (stereo not shown) [Example 84, 3-[({1-[4-(tert-Butyl-dimethyl-silanyloxy)-cyclohexyl]-azetidin-3-ylcarbamoyl}-methyl)-amino]-5-trifluoromethyl-indazole-1-carboxylic acid tert-butylamide]
530 nM	NC(=O)n1nc(NCC(=O)NC2CN(C3CCC(O)CC3)C2)c2cc(C(F)(F)F)ccc21 (stereo not shown) [Example 85, 3-({[1-(4-Hydroxy-cyclohexyl)-azetidin-3-ylcarbamoyl]-methyl}-amino)-5-trifluoromethyl-indazole-1-carboxylic acid amide]
750 nM	CC(C)(C)NC(=O)n1nc(NCC(=O)NC2CN(C3CCC(C#N)CC3)C2)c2cc(C(F)(F)F)ccc21 (stereo not shown) [Example 86, 3-({[1-(4-Cyano-cyclohexyl)-azetidin-3-ylcarbamoyl]-methyl}-amino)-5-trifluoromethyl-indazole-1-carboxylic acid tert-butylamide]
520 nM	N#CC1CCC(N2CC(NC(=O)CNc3nn(C(N)=O)c4ccc(C(F)(F)F)cc34)C2)CC1 (stereo not shown) [Example 87, 3-({[1-(4-Cyano-cyclohexyl)-azetidin-3-ylcarbamoyl]-methyl}-amino)-5-trifluoromethyl-indazole-1-carboxylic acid amide]
360 nM	CCOC(=O)C1CCC(N2CC(NC(=O)CNc3nn(C(=O)NC(C)(C)C)c4ccc(C(F)(F)F)cc34)C2)CC1 (stereo not shown) [Example 88, 4-{3-[2-(1-tert-Butylcarbamoyl-5-trifluoromethyl-1H-indazol-3-ylamino)-acetylamino]-azetidin-1-yl}-cyclohexanecarboxylic acid ethyl ester]

Source: patent publication US8436023B2, “Cyclohexyl-azetidinyl antagonists of CCR2” (Janssen Pharmaceutica N.V., priority 2010, dated 2013)
